Results taken from patent publication US20230050653A1, “ROCK INHIBITOR AND PREPARATION METHOD THEREFOR AND USE THEREOF” (WUHAN LL SCIENCE AND TECHNOLOGY DEVELOPMENT CO., LTD., priority 2019, published 2023).
pIC50: −log10 of the molar value.

How the values were obtained:
ROCK2 kinase = biological target: T1, ROCK2 kinase (Homo sapiens, UniProt O75116); test: In vitro evaluation of ROCK2 kinase activity (HTRF KinEASE-STK time-resolved fluorometric assay); type: biochemical
T1 construct: purchased Invitrogen PV3759
Method: ROCK2 activity screening. ROCK2 activity was detected using a 96-well (Cisbio) time-resolved fluorometric assay. The assay for ROCK2 was performed in the following assay buffer: 5 mM MgCl2 (Sigma), 1 mM DTT (Sigma) and 1× kinase buffer. The kinase buffer was used for dilution. 7.5 μL of ROCK2 kinase (Invitrogen, PV3759) was added to a 96-well microplate to reach a final concentration of 0.4 ng/μL, and then 0.25 μL of test compound (DMSO content: 1% (volume fraction)) was added. The mixture was incubated at room temperature for 0.5 h. To start the reaction, the kinase buffer was used to mix ATP (Aladdin) and the substrate STK-substrate 2-biotin. 7.5 μL of the mixed solution was added to the microplate to reach final concentrations of 6.739 μM and 1 μM. The resulting mixture was incubated for 2 h at room temperature. 5 mL of detection buffer was mixed with STK antibody-Cryptate, and then an appropriate volume of the mixture was mixed with an equal volume of streptavidin-XL665. 10 μL of the resulting mixture was added to the microplate to stop the reaction. After further incubation for about 1 h, the microplate was read on a Molecular Devices SpectraMax i3x multifunctional microplate reader. The kinase buffer, the STK-substrate 2-biotin, the detection buffer, the STK antibody-Cryptate, and the streptavidin-XL665 were all from HTRF KinEASE-STK kit (Cisbio, 1000 tests, 61[…]).

ROCK1 kinase = biological target: T2, ROCK1 kinase (Homo sapiens, UniProt Q13464); test: In vitro evaluation of ROCK1 kinase selectivity (HTRF KinEASE-STK time-resolved fluorometric assay); type: biochemical
T2 construct: purchased Invitrogen
Method: ROCK1 activity was detected using a 96-well (Cisbio) time-resolved fluorometric assay. The assay for ROCK1 was performed in the following assay buffer: 5 mM MgCl2 (Sigma), 1 mM DTT (Sigma) and 1× kinase buffer. The kinase buffer was used for dilution. 7.5 μL of ROCK1 kinase (Invitrogen) was added to a 96-well microplate to reach a final concentration of 0.4 ng/μL, and then 0.25 μL of test compound (DMSO content: 1%) was added. The mixture was incubated at room temperature for 0.5 h. To start the reaction, the kinase buffer was also used to mix ATP (Aladdin) and the substrate STK-substrate 2-biotin. 7.5 μL of the mixed solution was added to the microplate to reach final concentrations of 3.53 μM and 1 μM. The resulting mixture was incubated for 2 h at room temperature. […] was mixed with STK antibody-Cryptate, and then an appropriate volume of the mixture was mixed with an equal volume of streptavidin-XL665. 10 μL of the resulting mixture was added to stop the reaction. After further incubation for about 1 h, the microplate was read on a Molecular Devices SpectraMax i3x multifunctional microplate reader. The kinase buffer, the STK-substrate 2-biotin, the detection buffer, the STK antibody-Cryptate, and the streptavidin-XL665 were all from HTRF KinEASE-STK kit (Cisbio, 1000 tests, 61[…]).

T1 sequence (O75116 whole entry): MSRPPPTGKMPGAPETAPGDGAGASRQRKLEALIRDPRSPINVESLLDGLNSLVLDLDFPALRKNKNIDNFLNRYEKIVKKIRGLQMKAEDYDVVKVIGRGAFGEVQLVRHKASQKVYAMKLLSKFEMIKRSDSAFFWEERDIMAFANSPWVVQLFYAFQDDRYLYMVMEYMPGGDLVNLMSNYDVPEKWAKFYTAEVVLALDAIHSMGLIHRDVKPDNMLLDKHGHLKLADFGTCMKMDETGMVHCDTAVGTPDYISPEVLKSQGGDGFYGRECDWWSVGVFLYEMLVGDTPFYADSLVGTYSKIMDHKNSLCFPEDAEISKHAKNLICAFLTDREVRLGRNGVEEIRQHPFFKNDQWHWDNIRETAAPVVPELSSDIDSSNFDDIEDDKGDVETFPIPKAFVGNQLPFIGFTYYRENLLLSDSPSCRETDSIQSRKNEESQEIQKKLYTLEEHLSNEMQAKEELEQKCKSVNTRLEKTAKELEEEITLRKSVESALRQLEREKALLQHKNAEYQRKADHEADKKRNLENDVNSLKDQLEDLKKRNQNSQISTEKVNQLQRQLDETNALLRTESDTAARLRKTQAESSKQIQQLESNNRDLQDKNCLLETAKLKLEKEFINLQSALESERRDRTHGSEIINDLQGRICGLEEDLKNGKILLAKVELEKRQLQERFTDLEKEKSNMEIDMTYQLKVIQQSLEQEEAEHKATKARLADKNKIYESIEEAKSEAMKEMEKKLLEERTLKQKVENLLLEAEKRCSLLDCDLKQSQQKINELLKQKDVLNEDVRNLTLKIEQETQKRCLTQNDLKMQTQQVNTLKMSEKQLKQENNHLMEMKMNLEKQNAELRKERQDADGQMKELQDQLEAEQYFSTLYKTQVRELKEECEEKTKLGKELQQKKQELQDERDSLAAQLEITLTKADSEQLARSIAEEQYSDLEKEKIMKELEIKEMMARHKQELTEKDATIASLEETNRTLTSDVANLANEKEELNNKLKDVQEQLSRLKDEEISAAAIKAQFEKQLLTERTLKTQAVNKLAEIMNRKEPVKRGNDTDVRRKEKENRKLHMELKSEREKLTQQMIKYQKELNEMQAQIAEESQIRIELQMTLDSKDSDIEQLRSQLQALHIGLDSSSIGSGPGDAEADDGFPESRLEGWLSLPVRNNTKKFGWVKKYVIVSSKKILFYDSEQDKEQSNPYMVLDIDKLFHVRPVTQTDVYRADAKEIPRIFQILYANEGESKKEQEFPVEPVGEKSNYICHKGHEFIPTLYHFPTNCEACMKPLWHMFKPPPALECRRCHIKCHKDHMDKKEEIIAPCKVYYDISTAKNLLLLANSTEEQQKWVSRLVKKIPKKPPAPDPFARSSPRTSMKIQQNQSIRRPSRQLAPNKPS
T2 sequence (Q13464 whole entry): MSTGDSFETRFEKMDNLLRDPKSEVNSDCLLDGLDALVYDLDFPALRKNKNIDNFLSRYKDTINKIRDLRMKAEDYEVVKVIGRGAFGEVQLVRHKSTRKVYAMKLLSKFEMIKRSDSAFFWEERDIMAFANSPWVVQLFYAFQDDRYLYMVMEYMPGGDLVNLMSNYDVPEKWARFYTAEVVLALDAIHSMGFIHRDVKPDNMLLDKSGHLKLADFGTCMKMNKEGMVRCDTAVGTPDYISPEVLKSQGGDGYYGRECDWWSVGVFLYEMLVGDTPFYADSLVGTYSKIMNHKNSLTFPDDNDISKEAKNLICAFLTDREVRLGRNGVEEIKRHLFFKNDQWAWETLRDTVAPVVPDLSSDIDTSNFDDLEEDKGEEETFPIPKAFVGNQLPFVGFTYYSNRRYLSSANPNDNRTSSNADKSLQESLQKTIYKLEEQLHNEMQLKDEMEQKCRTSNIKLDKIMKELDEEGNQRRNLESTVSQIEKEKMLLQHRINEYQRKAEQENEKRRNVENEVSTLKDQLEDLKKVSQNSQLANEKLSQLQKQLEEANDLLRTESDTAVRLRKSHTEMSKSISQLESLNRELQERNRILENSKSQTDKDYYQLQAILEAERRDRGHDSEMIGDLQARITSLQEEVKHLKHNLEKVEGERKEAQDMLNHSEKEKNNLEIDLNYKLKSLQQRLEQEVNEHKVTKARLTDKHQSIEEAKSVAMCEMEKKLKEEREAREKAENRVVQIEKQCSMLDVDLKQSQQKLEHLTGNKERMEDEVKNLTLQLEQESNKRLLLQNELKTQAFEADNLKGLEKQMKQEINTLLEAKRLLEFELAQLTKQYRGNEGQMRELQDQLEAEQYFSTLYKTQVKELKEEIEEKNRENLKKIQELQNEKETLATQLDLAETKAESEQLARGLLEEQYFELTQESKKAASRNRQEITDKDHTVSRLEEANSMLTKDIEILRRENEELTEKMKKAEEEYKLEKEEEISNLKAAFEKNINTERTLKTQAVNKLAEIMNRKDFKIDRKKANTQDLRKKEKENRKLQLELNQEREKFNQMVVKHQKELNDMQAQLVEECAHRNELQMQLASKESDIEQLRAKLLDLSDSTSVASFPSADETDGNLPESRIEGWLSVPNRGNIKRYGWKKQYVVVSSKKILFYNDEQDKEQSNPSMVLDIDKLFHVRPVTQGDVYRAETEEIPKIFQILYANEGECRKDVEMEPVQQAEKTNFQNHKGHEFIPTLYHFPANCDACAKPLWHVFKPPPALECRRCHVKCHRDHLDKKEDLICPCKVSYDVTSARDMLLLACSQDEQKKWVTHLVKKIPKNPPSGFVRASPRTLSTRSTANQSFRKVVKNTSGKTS

Compound	pIC50 (ROCK2 kinase)	pIC50 (ROCK1 kinase)
CN(C)CCN(Cc1ccccc1)C(=O)N1CCc2cc(-c3cn[nH]c3)ccc21 [Compound T244]	6.30 to 7.30	6.30 to 7.30
COc1cc(F)cc(CNC(=O)N2CC(C)(C)c3cc(-c4cn[nH]c4)ccc32)c1 [Compound T223]	≥ 7.30	≥ 7.30
COc1cc(F)cc(CNC(=O)c2ncc3cc(-c4cn[nH]c4)ccn23)c1 [Compound T234]	≥ 7.30	≥ 7.30
COc1cc(F)cc(CNC(=O)c2cnc3cc(-c4cn[nH]c4)ccn23)c1 [Compound T233]	≥ 7.30	≥ 7.30
O=C(NC(c1ccccc1)c1ccccc1)N1CCc2cc(-c3cn[nH]c3)ccc21 [Compound T249]	5.30 to 6.30	5.30 to 6.30
O=C(NCc1ccccc1)N1CCc2cc(-c3ccc4[nH]ccc4c3)ccc21 [Compound T246]	5.30 to 6.30	5.30 to 6.30
COc1cc(F)cc(CNC(=O)N2CCc3cc(-c4cn[nH]c4)c(Cl)cc32)c1 [Compound T222, 6-chloro-N-(3-fluoro-5-methoxybenzyl)-5-(1H-pyrazol-4-yl)indoline-1-carboxamide]	≥ 7.30	≥ 7.30
COc1cc(F)cc(CNC(=O)N2CCc3ccc(-c4cn[nH]c4)cc3C2)c1 [Compound T208, N-(3-fluoro-5-methoxybenzyl)-7-(1H-pyrazol-4-yl)-3,4-dihydroisoquinoline-2(1H)-carboxamide]	≥ 7.30	≥ 7.30
COc1cc(F)cc(CNC(=O)c2ccn3cc(-c4cn[nH]c4)ccc23)c1 [Compound T237]	≥ 7.30	≥ 7.30
Cn1cnc(CNC(=O)N2CCc3cc(-c4cn[nH]c4)ccc32)c1 [Compound T242]	6.30 to 7.30	6.30 to 7.30
O=C(NCc1cc(F)cc(OCC2CC2)c1)N1CCc2cc(-c3c[nH]nc3F)c(F)cc21 [Compound T347, N-(3-(cyclopropylmethoxy)5-fluorobenzyl)-6-fluoro-5-(3-fluoro-1H-pyrazol-4-yl)indoline-1-carboxamide]	≥ 7.30	≥ 7.30
COc1cc(F)cc(CNC(=O)c2nn(C)c3cc(-c4cn[nH]c4)ccc23)c1 [Compound T236]	≥ 7.30	≥ 7.30
COc1cc(F)cc(CNC(=O)N2CCc3cc(-c4c[nH]nn4)ccc32)c1 [Compound T217, N-(3-fluoro-5-methoxybenzyl)-5-(1H-1,2,3-triazol-4-yl)indoline-1-carboxamide]	6.30 to 7.30	6.30 to 7.30
COc1cc(F)cc(C(C)NC(=O)N2CCc3cc(-c4cn[nH]c4)c(F)cc32)c1 (centres unmarked) [Compound T341, 6-fluoro-N-(1-(3-fluoro-5-methoxyphenyl)ethyl)-5-(1H-pyrazol-4-yl)indoline-1-carboxamide]	≥ 7.30	≥ 7.30
COc1cc(F)cc([C@@H](CO)NC(=O)c2ncn3cc(-c4cn[nH]c4)ccc23)c1 [Compound T344, (S)-N-(1-(3-fluoro-5-methoxyphenyl)-2-hydroxyethyl)-6-(1H-pyrazol-4-yl)imidazo[1,5-a]pyridine-1-carboxamide]	≥ 7.30	≥ 7.30

Continued, values first:

pIC50 (ROCK2 kinase)	pIC50 (ROCK1 kinase)	Compound
≥ 7.30	≥ 7.30	CC(C)CNC(=O)COc1cc(F)cc([C@@H](CO)NC(=O)N2CCc3cc(-c4cn[nH]c4)c(F)cc32)c1 [Compound T367, (S)-6-fluoro-N-(1-(3-fluoro-5-(2-(isobutylamino)-2-oxoethoxy)phenyl)-2-hydroxyethyl)-5-(1H-pyrazol-4-yl)indoline-1-carboxamide]
6.30 to 7.30	5.30 to 6.30	O=C(NCc1cccc(F)c1)c1ncn2cc(-c3cn[nH]c3)ccc12 [Compound T368, N-(3-fluorobenzyl)-6-(1H-pyrazol-4-yl)imidazo[1,5-a]pyridine-1-carboxamide]
5.30 to 6.30	5.30 to 6.30	O=C(NCc1cc(F)cc(OC(F)(F)F)c1)N1CCc2cc(-c3cn[nH]c3)c(F)cc21 [Compound T349, 6-fluoro-N-(3-fluoro-5-(trifluoromethoxy)benzyl)-5-(1H-pyrazol-4-yl)indoline-1-carboxamide]
≥ 7.30	≥ 7.30	COc1cc(F)cc(CNC(=O)N2CCc3cc(-c4c[nH]nc4F)c(F)cc32)c1 [Compound T351, 6-fluoro-5-(3-fluoro-1H-pyrazol-4-yl)-N-(3-fluoro-5-methoxybenzyl)indoline-1-carboxamide]
≥ 7.30	≥ 7.30	COc1cc(F)cc([C@@H](CO)NC(=O)N2CCc3cc(-c4cn[nH]c4)c(F)cc32)c1 [Compound T377, (S)-6-fluoro-N-(1-(3-fluoro-5-methoxyphenyl)-2-hydroxyethyl)-5-(1H-pyrazol-4-yl)indoline-1-carboxamide]
≥ 7.30	≥ 7.30	O=C(NC1CCCC1)c1cccc([C@@H](CO)NC(=O)N2CCc3cc(-c4cn[nH]c4)c(F)cc32)c1 [Compound T356-S, (S)-N-(1-(3-(cyclopentylcarbamoyl)phenyl)-2-hydroxyethyl)-6-fluoro-5-(1H-pyrazol-4-yl)indoline-1-carboxamide]
≥ 7.30	≥ 7.30	CC(C)NC(=O)COc1cc(F)cc([C@@H](CO)NC(=O)N2CCc3cc(-c4cn[nH]c4)c(F)cc32)c1 [Compound T358, (5)-6-fluoro-N-(1-(3-fluoro-5-(2-(isopropylamino)-2-oxoethoxy)phenyl)-2-hydroxyethyl)-5-(1H-pyrazol-4-yl)indoline-1-carboxamide]
≥ 7.30	≥ 7.30	O=C(NCC1CC1)c1cccc(CNC(=O)N2CCc3cc(-c4cn[nH]c4)c(F)cc32)c1 [Compound T382, N-(3-((cyclopropylmethyl)carbamoyl)benzyl)-6-fluoro-5-(1H-pyrazol-4-yl)indoline-1-carboxamide]
6.30 to 7.30	5.30 to 6.30	Nc1n[nH]cc1-c1cc2c(cc1F)N(C(=O)NCc1cc(F)cc(F)c1)CC2 [Compound T364, 5-(3-amino-1H-pyrazol-4-yl)-6-fluoro-N-(3,5-difluorobenzyl)indoline-1-carboxamide]
≥ 7.30	6.30 to 7.30	O=C(N[C@H](CO)c1cc(F)cc(OCC2CC2)c1)N1CCc2cc(-c3cn[nH]c3)c(F)cc21 [Compound T386, (S)-N-(1-(3-(cyclopropylmethoxy)-5-fluorophenyl)-2-hydroxyethyl)-6-fluoro-5-(1H-pyrazol-4-yl)indoline-1-carboxamide]
≥ 7.30	6.30 to 7.30	CCOc1cc(F)cc([C@@H](CO)NC(=O)N2CCc3cc(-c4cn[nH]c4)c(F)cc32)c1 [Compound T390, (S′)-N-(1-(3-ethoxy-5-fluorophenyl)-2-hydroxyethyl)-6-fluoro-5-(1N-pyrazol-4-yl)indoline-1-carboxamide]
≥ 7.30	≥ 7.30	COc1cc(F)cc([C@@H](CO)NC(=O)c2ncc3cc(-c4cn[nH]c4)ccn23)c1 [Compound T373, (5)-N-(1-(3-fluoro-5-methoxyphenyl)-2-hydroxyethyl)-7-(1H-pyrazol-4-yl)imidazo[1,5-a]pyridine-3-carboxamide]
≥ 7.30	≥ 7.30	COc1cc(F)cc(C(CN)NC(=O)N2CCc3cc(-c4cn[nH]c4)c(F)cc32)c1 (centres unmarked) [Compound T371, N-(2-amino-1-(3-fluoro-5-methoxyphenyl)ethyl)-6-fluoro-5-(1H-pyrazol-4-yl)indoline-1-carboxamide]
≥ 7.30	≥ 7.30	O=C(NCC1CC1)c1cc(F)cc(CNC(=O)N2CCc3cc(-c4cn[nH]c4)c(F)cc32)c1 [Compound T378, N-(3-((cyclopropylmethyl)carbamoyl)-5-fluorobenzyl)-6-fluoro-5-(1H-pyrazol-4-yl)indoline-1-carboxamide]
≥ 7.30	≥ 7.30	COc1cc(F)cc([C@@H](CO)NC(=O)c2cnc3cc(-c4cn[nH]c4)ccn23)c1 [Compound T352, (S)-N-(1-(3-fluoro-5-methoxyphenyl)-2-hydroxyethyl)-7-(1H-pyrazol-4-yl)imidazo(1,2-a)pyridine-3-carboxamide]
≥ 7.30	6.30 to 7.30	COc1cc(F)cc(C(CN(C)C)NC(=O)N2CCc3cc(-c4c[nH]nc4F)c(F)cc32)c1 (racemic) [Compound T388, (+/−)N-(2-(dimethylamino)-1-(3-fluoro-5-methoxyphenyl)ethyl)-6-fluoro-5-(3-fluoro-1H-pyrazol-4-yl)indoline-1-carboxamide]
